Laboratory results as given in patent US6258806A, “Amine derivatives of oxo- and hydroxy- substituted hydrocarbons” (Narhex Limited, priority 1992, dated 2001).

Tests used:
[1] = tested on: Human Immunodeficiency Virus type 1 (HIV) strain #237228 in MT2 cells; assay: Anti-HIV-1 antiviral activity in acutely infected MT2 cells (CPE and RT activity); type: cell-based; conditions: for IC100: Human immunodeficiency virus 1, 144 h, acute HIV-1 infection, day 6, concentration at which virus replication is inhibited (CPE negative or ±, >95% inhibition of RT activity); for antiviral index (Al), MT2 cells: only non-toxic concentrations used, 8640 min
From the text: (§1) The antiviral activity of representative compounds of the present invention has been determined at the Antivirals Laboratory, Fairfield Hospital, Fairfield, Victoria, Australia. In this test a stock solution of each compound was made in DMSO, then diluted in culture medium (RF 10) to 2× the final concentration required for test. The final concentration of DMSO was 1% or below. Approximately 250,000 continuous lymphocytes of human origin (MT2 cells) or 750,000 human peripheral blood lymphocytes (PBLs) were exposed to dilutions of each test compound, then immediately infected with Human Immunodeficiency Virus type 1 (HIV) strain #237228 (a clinical isolate obtained from a human source). The infectivity titers were expressed as tissue culture 50% infective dose (TCID50 per ml) with 1 TCID50 corresponding to the amount of supernatant required to infect 50% of the replicate cell cultures. The 250 and 200 TCID50 were used for MT2 and PBL cells respectively. The cell/drug/virus mixture was then incubated at 37° C./CO2 in a 24-well microtitre plate. Fresh amounts of the appropriate dilution of each drug were added to both MT2 and PBL cultures at day 3. At day 6, the extent of HIV-specific cytopathic effects (CPE) associated with each concentration of test compound in each of the cultures was rated according to the following scale:
(§2) 4+: 75-100% of cells showing 3+: good CPE
(§3) 3+: 50-75% of cells showing 2+: moderate CPE
(§4) 2+: 25-50% of cells showing 1+: low CPE
(§5) 1+: 5-25% of cells showing trace: minimal CPE
(§6) +/-: less than 5% CPE Negative: no CPE
(§7) The activity of the compounds at each concentration was also assessed by their ability to inhibit viron-associated reverse transcriptase (RT) activity in the culture supernates. At the time of rating of CPE, supernatant fluids from each well were removed and RT activity measured using a standard assay. CPE ratings of negative, ± (in MT2 cells) or trace (in PBLs), with greater than 95% inhibition of RT activity, was considered to represent IC100 (the concentration of compound at which the virus replication is inhibited). Control cultures included in each test were:
(§8) (a) HIV-infected cells in the absence of test compound.
(§9) (b) Uninfected cells in the absence of tested compound.
(§10) (c) Cell toxicity control consisting of uninfected cells treated with dilutions of test compound.
(§11) At the conclusion of each experiment, viable cells in these cultures, as determined by tryptan blue exclusion, were compared with the counts obtained in (b), above.

[2] = target: HIV-1 protease (Human immunodeficiency virus type 1 group M subtype B, UniProt P04585); assay: HIV-1 protease-inhibiting activity; type: biochemical; conditions: half-maximal inhibition of HIV-1 protease
From the text: The HIV protease-inhibiting activity of representative compounds of the present invention has been tested by known methods (Brinkworth, R. I., et al., Biochem. Biophys. Res. Commun. 176, 241, (1991); McLeod, D. A., et al., Bioorganic & Medicinal Chemistry Letters (1991) 653-658).

[3] = tested on: Human Immunodeficiency Virus type 1 (HIV) strain #237228 in human peripheral blood lymphocytes (PBLs); assay: Anti-HIV-1 antiviral activity in acutely infected peripheral blood lymphocytes (CPE and RT activity); type: cell-based, Human Immunodeficiency Virus type 1 (HIV); human cells; conditions: for IC100: Human immunodeficiency virus 1, 144 h, PBL cells, acute HIV-1 infection, day 6, concentration at which virus replication is inhibited (CPE negative or trace, >95% inhibition of RT activity); for antiviral index (Al), PBL cells: only non-toxic concentrations used, 8640 min
From the text: as §1, §2, §3, §4, §5, §6, §7, §8, §9, §10, §11

[4] = tested on: MT2 cells and PBLs; assay: Toxicity to the cells (viable cells, trypan blue exclusion); type: cell-based, human; conditions: compared to AZT (azidothymidine), in words
From the text: as §10, §11

Compound	IC100 [1] [µM]	antiviral index (Al), MT2 cells [1]	IC50 [2] [nM]	IC100 [3] [µM]	antiviral index (Al), PBL cells [3]	toxicity to the cells compared to AZT [4]
CC(C)(C)OC(=O)N1CC2CCCCC2CN1CC(O)[C@H](Cc1ccccc1)NC(=O)[C@H](CC(N)=O)NC(=O)c1ccc2ccccc2n1 (stereo partly drawn) [Compound 2a, cis-1,6-3-t-Butoxycarbonyl-4-[(2RS,3S)-2-hydroxy-3-(N-quinaldyl-L-asparaginyl)amino-4-phenylbutyl]-3,4daza-bicylo[4.4.0]decane]	0.1	50	5.4 ± 0.54	0.1	100	–
CC(C)N(C[C@@H](O)[C@H](Cc1ccccc1)NC(=O)[C@H](CC(N)=O)NC(=O)c1ccc2ccccc2n1)NC(=O)OC(C)(C)C [Compound 7A, t-Butyl 3-Isopropyl-3-[(2R,3S)-2-hydroxy-3-(N-quinaldyl-L-asparaginyl)amino-4-phenylbutyl]carbazate]	1	50	7.3 ± 0.7	1	25	–
CC(C)N(C[C@H](O)[C@H](Cc1ccccc1)NC(=O)[C@H](CC(N)=O)NC(=O)c1ccc2ccccc2n1)NC(=O)OC(C)(C)C [Compound 7B, t-Butyl 3-isogrooyl-3-[(2S, 3S)-2-hydroxy-3-(N-quinaldyl-L-asparaginyl)amino-4-phenylbutyl]carbazate]	0.1	200	< 3.5	0.1	> 200	lower toxicity to the cells
CC(C)N(C[C@@H](O)[C@H](Cc1ccccc1)NC(=O)[C@H](CC(N)=O)NC(=O)c1ccc2ccccc2n1)NC(=O)c1ccccc1NC(=O)OCc1ccccn1 [Compound 8, 1-(2-Pyridyl)methoxycarbonylanthranilyl-2-[(2R,3S)-2-hydroxy-3-(N-quinaldoyl-L-asparaginyl)amino4-phenylbutyl]-2-isopropyl-hydrazine]	0.1	> 100	–	0.1	> 100	lower toxicity to the cells
CC(C)[C@H](NC(=O)OCc1ccccn1)C(=O)N[C@@H](Cc1ccccc1)C(O)CN1C2CCC(C2)N1C(=O)OC(C)(C)C (stereo partly drawn) [Compound 10, 2-t-Butoxycarbonyl-3-[(2RS, 3S)-2-hydroxy-3-[N-(2-pyridyl)-methoxycarbonyl-L-valyl]amino-4-phenylbutyl]-2,3-diaza-bicyclo[2.2.1]-heptane]	25	1	3300 ± 650	–	–	–
CC(C)(C)OC(=O)N1Cc2ccccc2CN1CC(O)[C@H](Cc1ccccc1)NC(=O)[C@H](CC(N)=O)NC(=O)c1ccc2ccccc2n1 (stereo partly drawn) [Compound 11, 2-t-Butoxycarbonyl-3-[(2RS, 3S)-2-hydroxy-3-(N-quinaldyl-L-asparaginyl)amino-4-phenylbutyl]-1,2,3,4-tetrahydrophthalazine]	1	> 10	12.5 ± 3.2	–	–	–
CC(C)N(C[C@H](O)[C@H](Cc1ccccc1)NC(=O)[C@H](CC(N)=O)NC(=O)c1ccc2ccccc2n1)NC(=O)NC(C)(C)C [Compound 14, 1-(t-Butylamino)carbonyl-2-[(2S,3S)-2-hydroxy-3-(N-quinaldyl-L-asparaginyl)amino-4-phenylbutyl]-2-isopropylhydrazine]	1	50	–	1	> 50	–
CC(C)N(C[C@H](O)[C@H](Cc1ccccc1)NC(=O)[C@H](CC(N)=O)NC(=O)c1ccccn1)NC(=O)OC(C)(C)C [Compound 15, t-Butyl 3-isopropyl-3-[(2S,3S)-2-hydroxy-3-(N-picolinyl-L-asparaginyl)amino-4-phenylbutyl]carbazate]	1	100	–	1	200	–
CC(C)(C)OC(=O)NN(Cc1ccccc1)C[C@H](O)[C@H](Cc1ccccc1)NC(=O)[C@H](CC(N)=O)NC(=O)c1ccc2ccccc2n1 [Compound 16, t-Butyl 3-benzyl-3-[(2S,3S)-2-hydroxy-3-(N-quinaldyl-L-asparaginyl)amino-4-phenylbuty]carbazate]	1	100	–	1	1	–
CC(C)(C)OC(=O)NN(C[C@H](O)[C@H](Cc1ccccc1)NC(=O)[C@H](CC(N)=O)NC(=O)c1ccc2ccccc2n1)C1CCCCC1 [Compound 17, t-Butyl 3-cyclohexyl-3-[(2S,3S)-2-hydroxy-3-(N-quinaldyl-L-asparaginyl)amino-4-phenylbutyl]carbazate]	0.1	100	–	0.1	200	lower toxicity to the cells
CC(C)N(C[C@H](O)[C@H](Cc1ccccc1)NC(=O)[C@H](CC(N)=O)NC(=O)c1ccccc1)NC(=O)OC(C)(C)C [Compound 18, t-Butyl 3-isopropyl-3-[(2S,3S)-2-hydroxy-3-(N-benzoyl-L-asparaginyl)amino-4-phenylbutyl]carbazate]	1	10	–	1	> 150	–
CC(C)(C)OC(=O)N1CCCCN1C[C@H](O)[C@H](Cc1ccccc1)NC(=O)[C@H](CC(N)=O)NC(=O)c1ccc2ccccc2n1 [Compound 19, 1-t-Butyloxycarbonyl-2-[(2S,3S)-2-hydroxy-3-(N-quinaldyl-L-asparaginyl)amino-4-phenylbutyl]hexahydropyridazine]	1	10	–	0.1	200	–
CC(C)(C)OC(=O)N1CC2CCCCC2CN1C[C@H](O)[C@H](Cc1ccccc1)NC(=O)[C@H](CC#N)NC(=O)c1ccc2ccccc2n1 (stereo partly drawn) [Compound 20, cis-1,6-3-t-Butoxycarbonyl-4-[(2S,3S)-2-hydroxy-3-(N-quinaldyl-3-cyano-L-alanyl)amimo-4-phenylbutyl]-3,4-diaza-bicyclo[4.4.0]decane]	1	10	–	1	10	–
